Measurements taken from US20180311342A1, “IMMUNOSTIMULATING AGENT” (AJINOMOTO CO., INC., priority 2017, published 2018).

Tested on: anti-OVA-specific IgG1 and IgG2a subclass antibody production
Assay: Evaluation test of adjuvant activity (overall conclusion from anti-OVA IgG1 and IgG2a production)
Assay type: in vivo, BALB/c mice
Experimental: 8-Week-old female BALB/c mice were divided into groups (N=6), and each group was primarily immunized by dorsal-subcutaneous administration of (1) ovalbumin (OVA) (5 μg) dissolved in saline as an antigen (OVA single administration group), (2) OVA 5 μg and Addavax™ (mixed with saline at 1:1) dissolved in saline (Addavax™ administration group) as positive control adjuvant, (3) OVA 5 μg and SZ137 0.256 μmol dissolved or dispersed in 5% α-cyclodextrin (hereinafter to be simply referred to as αCD)-added saline (SZ137 administration group), (4) OVA (5 μg) and SZ138 (0.256 μmol) dissolved or dispersed in 5% αCD-added saline (SZ138 administration group), (5) OVA (5 μg) and SZ142 (0.256 μmol) dissolved or dispersed in 5% αCD-added saline (SZ142 administration group), (6) OVA (5 μg) and SZ144 (0.256 μmol) dissolved or dispersed in 5% αCD-added saline (SZ144 administration group), (7) OVA (5 μg) and SZ145 (0.256 μmol) dissolved or dispersed in 5% αCD-added saline (SZ145 administration group), (8) OVA (5 μg) and SZ146 (0.256 μmol) dissolved or dispersed in 5% αCD-added saline (SZ146 administration group), (9) OVA (5 μg) and SZ147 (0.256 μmol) dissolved or dispersed in 5% αCD-added saline (SZ147 administration group), (10) OVA (5 μg) and SZ148 (0.256 μmol) dissolved or dispersed in 5% αCD-added saline (SZ148 administration group), each per mouse. Two week later, the secondary immunization was carried out by dorsal-subcutaneous administration of solutions or dispersions similar to those of the above-mentioned (1)-(10) again. […]
To a 96 well plate was added 5 μg/ml OVA at 100 µl/well, and the mixture was incubated at 4° C. overnight. After incubation, the mixture was washed three times with 200 μl of PBS-T (PBS (phosphate buffered saline)+0.05% (v/v) Tween 20) per well, and blocked with 100 μl of 5% FCS (fetal calf serum)/PBS solution per well at room temperature for 1-2 hr. Thereafter, the mixture was washed three times with PBS-T (200 μl/well), a diluted serum sample (100 l/well) or the same amount of 5% FCS/PBS solution as a control was added, and the mixture was incubated at 37° C. for 1 hr. To calculate concentration of the antibody, the standard of an anti-OVA-specific IgG1 subclass antibody diluted with 2% FCS/PBS solution was added at 100 ng/ml, 50 ng/ml, 25 ng/ml, 12.5 ng/ml, 6.25 ng/ml, 3.125 ng/ml, 1.56 ng/ml, 0.781 ng/ml, 0.391 ng/ml, 0.195 ng/ml, 0.098 ng/ml, 0 ng/ml, per 1 well. When an anti-OVA-specific IgG2a subclass antibody was measured, the standard of an anti-OVA-specific IgG2a subclass antibody was added at 50 ng/ml, 25 ng/ml, 12.5 ng/ml, 6.25 ng/ml, 3.125 ng/ml, 1.56 ng/ml, 0.781 ng/ml, 0.391 ng/ml, 0.195 ng/ml, 0.098 ng/ml, 0.049 ng/ml, 0 ng/ml, per 1 well. Thereafter, similar to the samples, the mixture was washed five times with PBS-T (200 μl/well), a diluted biotinylated anti-mouse IgG1 antibody and IgG2a antibody were added (100 μl/well), and the mixture was incubated at 37° C. for 45 min. Thereafter, the mixture was washed five times with PBS-T (200 μl/well), a diluted anti-biotin-HRP antibody was added (100 μl/well), and the mixture was incubated at 37° C. for another 30 min. Thereafter, the mixture was washed five times with PBS-T (200 μl/well), TMB substrate solution was added (100 μl/well), and the mixture was incubated at room temperature for 10-15 min. Thereafter, a reaction quenching liquid (2N sulfuric acid solution) was added (50 l/well) to discontinue a color developing reaction, and the absorbance (OD Value=450 nm) was measured by a microplate reader. A standard curve was drawn from the measured OD values, and the concentration was calculated. […]

[1] = conclusion from IgG1/IgG2a after secondary immunization, compound 0.256 μmol in 5% αCD-added saline with OVA 5 μg, dorsal-subcutaneous
[2] = conclusion from IgG1/IgG2a after primary immunization, compound 0.256 μmol in 5% αCD-added saline with OVA 5 μg, dorsal-subcutaneous

CCCCCCCCCCCCCCCC(=O)N[C@@H](CCCNC(=N)N)C(=O)NCCCCCCCCCCCC.Cl [SZ111, N-[(1S)-1-(dodecylcarbamoyl)-4-guanidino-butyl]hexadecanamide hydrochloride]
adjuvant activity (Experimental Example 4: conclusion from IgG1/IgG2a after secondary immunization, compound dissolved in saline): has an adjuvant activity | adjuvant activity [1]: has an adjuvant activity

CCCCCCCCCCCCCCCCCCCCCC(=O)N[C@@H](CCCNC(=N)N)C(=O)NCCCCCCCCCCCC.Cl [SZ138, N-[(1S)-1-(dodecylcarbamoyl)-4-guanidino-butyl]docosanamide hydrochloride]
adjuvant activity [1]: have an adjuvant activity

CCCCCCCCCCCCCCCCCCCCCC(=O)N[C@@H](CC(C)C)C(=O)NCCCCCCCCCCC [SZ142, N-[(1S)-3-methyl-1-(undecylcarbamoyl)butyl]docosanamide]
adjuvant activity [1]: have an adjuvant activity

CCCCCCCCCCCCCCCC(=O)N[C@@H](CC(C)C)C(=O)NCCCCCCCCCCCC [SZ144, N-[(1S)-1-(dodecylcarbamoyl)-3-methyl-butyl]hexadecanamide]
adjuvant activity [1]: have an adjuvant activity

CCCCCCCCCCCCCCCCCCCCCC(=O)N[C@@H](C)C(=O)NCCCCCCCCCCCC [SZ145, N-[(1S)-2-(dodecylamino)-1-methyl-2-oxo-ethyl]docosanamide]
adjuvant activity [1]: have an adjuvant activity

CCCCCCCCCCCCCCCCCCCCCC(=O)NC(C)(C)C(=O)NCCCCCCCCCCCC [SZ146, N-[2-(dodecylamino)-1,1-dimethyl-2-oxo-ethyl]docosanamide]
adjuvant activity [1]: have an adjuvant activity

CCCCCCCCCCCCCCCCCCCCCC(=O)NCCC(=O)NCCCCCCCCCCCC [SZ147, N-[3-(dodecylamino)-3-oxo-propyl]docosanamide]
adjuvant activity [1]: have an adjuvant activity

CCCCCCCCCCCCCCCCCCCCCC(=O)NCC(C)(C)C(=O)NCCCCCCCCCCCC [SZ148, N-[3-(dodecylamino)-2,2-dimethyl-3-oxo-propyl]docosanamide]
adjuvant activity [1]: have an adjuvant activity

CCCCCCCCCCCCCCCCOC(=O)N[C@@H](CCCNC(=N)N)C(=O)NCCCCCCCCCCCC.Cl [SZ150, Hexadecyl N-[(1S)-1-(dodecylcarbamoyl)-4-guanidino-butyl]carbamate hydrochloride]
adjuvant activity [1]: have an adjuvant activity

CCCCCCCCCCCCCCCC(=O)N[C@@H](CCCCN)C(=O)NCCCCCCCCCCCC.Cl [SZ153, N-[(1S)-5-amino-1-(dodecylcarbamoyl)pentyl]hexadecanamide hydrochloride]
adjuvant activity [1]: have an adjuvant activity

CCCCCCCCCCCCCCCCCCCCCC(=O)N[C@@H](CCCC)C(=O)NCCCCCCCCCCCC [SZ155, N-[(1S)-1-(dodecylcarbamoyl)pentyl]docosanamide]
adjuvant activity [1]: have an adjuvant activity

CCCCCCCCCCCCCCCCCCCCCC(=O)N1CCC(C(=O)NCCCCCCCCCCCC)CC1 [SZ156, 1-docosanoyl-N-dodecyl-piperidine-4-carboxamide]
adjuvant activity [1]: have an adjuvant activity

CCCCCCCCCCCCCCCCCCCCCC(=O)N[C@@H](CCCNC(=N)N)C(=O)N(CCCCCCC)CCCCCCC.Cl [SZ159, N-[(1S)-1-(diheptylcarbamoyl)-4-guanidino-butyl]docosanamide hydrochloride]
adjuvant activity [1]: have an adjuvant activity

CCCCCCCCCCCCCCCCCCCCCC(=O)N[C@@H](CCCCN)C(=O)NCCCCCCCCCCCC.Cl [SZ160, N-[(1S)-5-amino-1-(dodecylcarbamoyl)pentyl]docosanamide hydrochloride]
adjuvant activity [1]: have an adjuvant activity

CCCCCCCC/C=C/CCCCCCCC(=O)N[C@@H](CCCNC(=N)N)C(=O)NCCCCCCCCCCCC.Cl [SZ161, (E)-N-[(1S)-1-(dodecylcarbamoyl)-4-guanidino-butyl]octadeca-9-enamide hydrochloride]
adjuvant activity [1]: have an adjuvant activity

CCCCCCCCCCCCCCCCCCCCCC(=O)N[C@@H](CCCNC(=N)N)C(=O)NCCCCCCC.Cl [SZ163, N-[(1S)-4-guanidino-1-(heptylcarbamoyl)butyl]docosanamide hydrochloride]
adjuvant activity [1]: have an adjuvant activity

CCCCCCCCCCCCCCCCCCCCCC(=O)N[C@@H](CCCN)C(=O)NCCCCCCCCCCCC.Cl [SZ165, N-[(1S)-4-amino-1-(dodecylcarbamoyl)butyl]docosanamide hydrochloride]
adjuvant activity [1]: have an adjuvant activity

CCCCCCCCCCCCCCCCCCCCCC(=O)N[C@@H](CCCCNC(=N)N)C(=O)NCCCCCCCCCCCC.Cl [SZ166, N-[(1S)-1-(dodecylcarbamoyl)-5-guanidino-pentyl]docosanamide hydrochloride]
adjuvant activity [1]: have an adjuvant activity

CCCCCCCCCCCCCCCCCCCCCC(=O)N[C@@H](CCCCNC(C)=O)C(=O)NCCCCCCCCCCCC [SZ167, N-[(1S)-5-acetamide-1-(dodecylcarbamoyl)pentyl]docosanamide]
adjuvant activity [1]: have an adjuvant activity

CCCCCCCCCCCCCCCCNC(=O)N[C@@H](CCCNC(=N)N)C(=O)NCCCCCC.Cl [SZ168, (2S)-5-guanidino-2-(hexadecylcarbamoylamino)-N-hexyl-pentanamide hydrochloride]
adjuvant activity [1]: have an adjuvant activity

CCCCCCCCCCCCCCCCOC(=O)N[C@@H](CCCNC(=N)N)C(=O)NCCCCCC.Cl [SZ169, Hexadecyl N-[(1S)-4-guanidino-1-(hexylcarbamoyl)butyl]carbamate hydrochloride]
adjuvant activity [1]: have an adjuvant activity

CCCCCCCCCCCCCCCCCCCCCC(=O)N[C@@H](CCCCNC(=N)N)C(=O)NCCCCCC.Cl [SZ170, N-[(1S)-5-guanidino-1-(hexylcarbamoyl)pentyl]docosanamide hydrochloride]
adjuvant activity [1]: have an adjuvant activity

CCCCCCCCCCCCCCCCCCCC(=O)N[C@@H](CCCNC(=N)N)C(=O)NCCCCCCCCCCCC.Cl [SZ180, N-[(1S)-1-(dodecylcarbamoyl)-4-guanidino-butyl]icosanamide hydrochloride]
adjuvant activity [2]: have an adjuvant activity | adjuvant activity [1]: have an adjuvant activity

CCCCCCCCCCCCCCCC(=O)N[C@@H](CCCNC(=N)N)C(=O)NCCCCCCCC.Cl [SZ181, N-[(1S)-4-guanidino-1-(octylcarbamoyl)butyl]hexadecanamide hydrochloride]
adjuvant activity [2]: have an adjuvant activity | adjuvant activity [1]: have an adjuvant activity

CCCCCCCCCCCCCCCCCC(=O)N[C@@H](CCCNC(=N)N)C(=O)NCCCCCCCC.Cl [SZ182, N-[(1S)-4-guanidino-1-(octylcarbamoyl)butyl]octadecanamide hydrochloride]
adjuvant activity [2]: have an adjuvant activity | adjuvant activity [1]: have an adjuvant activity

CCCCCCCCCCCCCCCCCCCC(=O)N[C@@H](CCCNC(=N)N)C(=O)NCCCCCCCC.Cl [SZ183, N-[(1S)-4-guanidino-1-(octylcarbamoyl)butyl]icosanamide hydrochloride]
adjuvant activity [2]: have an adjuvant activity | adjuvant activity [1]: have an adjuvant activity

CCCCCCCCCCCCCCCCCC(=O)N[C@@H](CCCCN)C(=O)NCCCCCCCC.Cl [SZ184, N-[(1S)-5-amino-1-(octylcarbamoyl)pentyl]octadecanamide hydrochloride]
adjuvant activity [2]: have an adjuvant activity | adjuvant activity [1]: have an adjuvant activity
